The values below come from patent US20230149603A1, “DRUG-RELEASING POLYMER COMPOSITION AND DEVICE” (Novaflux Inc., priority 2021, published 2023).

Counter-ions that a name gives are not always drawn.

A short description of data set [1]: Thermogravimetric analysis of the APIs. The format is physicochemical. The note with it: ramp heated to 140° C. and held for 10 minutes. Here is the method:
Thermogravimetric analysis was performed on the APIs used in compositions. Each drug was ramp heated to 140° C. and held at that temperature for 10 minutes. For all compositions, time spent melt-mixing is 8-10 minutes. The decomposition of the API in that time was less than 0.5% for each drug, meaning that the API are stable during processing. For Rifampin, the change in mass was 0.292%; for Minocycline HCl the change in mass was 0.421%; and for minocycline Free Base the change in mass was 0.137%.

Data set [2] is described as follows: Stability (discoloration) of the two forms of minocycline.
Data set [3] has as its system A. Baumanii. The note with it: averaged between the high and low of the MIC; cited from earlier work.
The conditions of data set [4]: cited from earlier work.
In data set [5] the test system is S. Aureus. Conditions: averaged between the high and low of the MIC; cited from earlier work.
Data set [6] relates to S. Epidermidis. Conditions: averaged between the high and low of the MIC; cited from earlier work.
Data set [7] deals with E. Coli. Conditions: averaged between the high and low of the MIC; cited from earlier work.

`CN(C)c1ccc(O)c2c1C[C@H]1C[C@H]3[C@H](N(C)C)C(O)=C(C(N)=O)C(=O)[C@@]3(O)C(O)=C1C2=O` [Minocycline HCl]: the “change in mass (decomposition of the API)” value (“change in mass” for short) in data set [1] came to 0.421%.
As to `CN(C)c1ccc(O)c2c1C[C@H]1C[C@H]3[C@H](N(C)C)C(=O)C(C(N)=O)=C(O)[C@@]3(O)C(=O)C1=C2O` [minocycline Free Base], the discoloration process result in data set [2] (dry powder form exposed to air) is given as “not observed at all”. Further, the “stability (discoloration) over time” value in data set [2] (stored in distilled water and formulated in compositions) is “the drug oxidizes with the passage of time”. Moreover, in data set [1], the “change in mass” value stood at 0.137%.
As to `CO[C@H]1/C=C/O[C@@]2(C)Oc3c(C)c(O)c4c(O)c(c(/C=N/N5CCN(C)CC5)c(O)c4c3C2=O)NC(=O)/C(C)=C\C=C\[C@H](C)[C@H](O)[C@@H](C)[C@@H](O)[C@@H](C)[C@H](OC(C)=O)[C@@H]1C` [Rifampicin], the MIC in data set [3] was 6 micrograms per ml; in data set [5] it was 0.0095 micrograms per ml; in data set [6], 0.1 micrograms per ml; in data set [7], 10 micrograms per ml. Moreover, the “change in mass” value in data set [1] was 0.292%. In addition, the solubility in water entry in data set [4] was “low solubility in water”.
